In brackets after ≈: the same amount, converted by molar mass.
Biological target: α-amylase
Test: DNS colorimetric α-amylase assay, starch substrate, absorbance at […] nm
Type: biochemical

## CCCN(CCC)S(=O)(=O)c1ccc(-c2nnc(SCN3C(=O)c4ccccc4C3=O)o2)cc1 [PESMP, 4-(5-((1,3-Dioxoisoindolin-2-yl)methylthio)-1,3,4-oxadiazol-2-yl)-N,N-dipropylbenzene-sulfonamide]
  IC50 Value: 10.60 ± 0.16 µg/mL (≈ 21.2 µM)

From PMC10051969, “Exploring Probenecid Derived 1,3,4-Oxadiazole-Phthalimide Hybrid as α-Amylase Inhibitor: Synthesis, Structural Investigation, and Molecular Modeling” (Pharmaceuticals, 2023)
